Data reported in paper PMC6467542 (Bioorganic & Medicinal Chemistry, 2019).
pIC50: −log10 of the molar value. In brackets after ≈: the same amount, converted by molar mass. Read-outs that look alike come from different tables or passages of the source.

Experiments:
M. tb (strain H37Rv) [1] = experiment: MIC90 against replicating M.tb (MABA); assay type: cell-based, Mycobacterium tuberculosis; details: Mycobacterium tuberculosis, aerobic (replicating) conditions, 90% inhibition of growth
in vitro [2] = details: mouse, microsomes
in vitro [3] = details: human, microsomes
hERG potassium channel = hERG potassium channel (Homo sapiens, UniProt Q12809); experiment: Inhibition of hERG potassium current (patch clamp electrophysiology); details: for pIC50: read-out: hERG IC50, manual patch clamp, 5-concentration dose-response; for hERG % inhibition at 3 µM: manual or (less accurate) QPatch assay
[4] = mouse, in vivo
M.tb = experiment: Efficacy in a mouse model of TB (lung CFU reduction); assay type: in vivo
M. tb (strain H37Rv) [5] = experiment: MIC90 against non-replicating M.tb (LORA); assay type: cell-based, Mycobacterium tuberculosis; details: Mycobacterium tuberculosis, H37RV, read-out: MIC90 LORA
Protocol: In these assays, 1 is a potent inhibitor, with MICs of 0.08 and 0.12 µg/mL, respectively. Replacement of the naphthalene C-unit of 1 with various pyridyls produced analogues of considerably lower lipophilicity, with clogP values ranging from 6.89 down to 2.98.

in vivo = details: mouse, iv
[6] = Clearance by human liver microsomes
[7] = Clearance by mouse liver microsomes
[8] = Mycobacterium tuberculosis, inhaled or nasal, 288 h; read-out: Log reduction in colony-forming units (CFU), new compound

hERG potassium channel, sequence (Q12809 whole entry): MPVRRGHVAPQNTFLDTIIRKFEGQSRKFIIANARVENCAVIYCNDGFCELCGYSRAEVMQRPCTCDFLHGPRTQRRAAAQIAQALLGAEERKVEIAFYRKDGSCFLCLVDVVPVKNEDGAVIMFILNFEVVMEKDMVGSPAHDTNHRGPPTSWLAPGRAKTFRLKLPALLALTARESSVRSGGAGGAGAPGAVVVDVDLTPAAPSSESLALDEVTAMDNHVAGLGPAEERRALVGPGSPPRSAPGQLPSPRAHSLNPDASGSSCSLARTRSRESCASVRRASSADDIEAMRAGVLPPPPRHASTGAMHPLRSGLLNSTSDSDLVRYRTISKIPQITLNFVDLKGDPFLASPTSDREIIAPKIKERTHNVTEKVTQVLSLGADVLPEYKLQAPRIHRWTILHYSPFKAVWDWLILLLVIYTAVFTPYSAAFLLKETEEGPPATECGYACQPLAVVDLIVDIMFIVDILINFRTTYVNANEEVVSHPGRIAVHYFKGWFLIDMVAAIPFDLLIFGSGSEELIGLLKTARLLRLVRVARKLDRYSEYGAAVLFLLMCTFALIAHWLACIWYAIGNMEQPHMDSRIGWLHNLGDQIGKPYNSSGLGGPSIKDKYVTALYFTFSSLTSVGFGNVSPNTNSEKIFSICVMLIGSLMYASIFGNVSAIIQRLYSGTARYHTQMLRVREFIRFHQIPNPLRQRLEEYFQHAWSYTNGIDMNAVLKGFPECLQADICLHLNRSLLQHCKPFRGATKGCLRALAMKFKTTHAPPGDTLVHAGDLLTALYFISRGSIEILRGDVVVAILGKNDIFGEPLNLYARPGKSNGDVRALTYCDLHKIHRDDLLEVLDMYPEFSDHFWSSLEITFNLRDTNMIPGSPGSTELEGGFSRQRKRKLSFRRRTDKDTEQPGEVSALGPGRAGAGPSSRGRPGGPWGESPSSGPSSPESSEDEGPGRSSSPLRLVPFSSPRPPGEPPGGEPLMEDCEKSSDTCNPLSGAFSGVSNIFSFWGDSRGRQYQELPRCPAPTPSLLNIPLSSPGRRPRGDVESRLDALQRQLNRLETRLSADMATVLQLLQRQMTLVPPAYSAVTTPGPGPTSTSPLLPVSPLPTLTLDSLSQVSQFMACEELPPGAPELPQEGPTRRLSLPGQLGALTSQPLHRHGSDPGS

## COc1nc2ccc(C#N)cc2cc1C(c1cccc(C)c1)C(O)(CCN(C)C)c1cccnc1OC (stereo not drawn) [Compound 40]
M. tb (strain H37Rv) [1]
  MIC90: 0.52 µg/mL (≈ 1.05 µM)
In vitro [2]
  microsomal CLint: 53 µL/min/mg
In vitro [3]
  microsomal CLint: 11 µL/min/mg
hERG potassium channel
  pIC50: 6.52
[4]
  AUC: exposure, AUCinf: 1170 ng·h/mL
  IV Cl: IV clearance: 48 mL/min/kg
  Vz: IV apparent volume of distribution during terminal phase: 6.6 L/kg
  F: oral bioavailability: 33%
M.tb; [8]
  log reduction at 20 mg/kg: 0.5
M. tb (strain H37Rv) [5]
  MIC90: 0.76 µg/mL (≈ 1.53 µM)

## COc1nc2ccc(Br)cc2cc1C(c1cccc2c1OCO2)C(O)(CCN(C)C)c1cccnc1OC (stereo not drawn) [Compound 41]
M. tb (strain H37Rv) [1]
  MIC90: 0.66 µg/mL (≈ 1.14 µM)
In vitro [2]
  microsomal CLint: 19 µL/min/mg
In vitro [3]
  microsomal CLint: 36 µL/min/mg
hERG potassium channel
  hERG % inhibition at 3 µM: 26%/3
[4]
  AUC: exposure, AUCinf: 3780 ng·h/mL
  IV Cl: IV clearance: 27 mL/min/kg
  Vz: IV apparent volume of distribution during terminal phase: 20 L/kg
  F: oral bioavailability: 46%
M.tb; [8]
  log reduction at 20 mg/kg: 0.3
M. tb (strain H37Rv) [5]
  MIC90: 1.1 µg/mL (≈ 1.89 µM)

## COc1cc(C(O)(CCN(C)C)C(c2cc3cc(Br)ccc3nc2OC)c2ccnc(OC)c2OC)cnc1OC (stereo not drawn) [Compound 48]
M. tb (strain H37Rv) [1]
  MIC90: 0.06 µg/mL (≈ 0.0956 µM)
In vitro [2]
  microsomal CLint: 59 µL/min/mg
In vitro [3]
  microsomal CLint: 5 µL/min/mg
hERG potassium channel
  pIC50: 5.44
[4]
  AUC: exposure, AUCinf: 4280 ng·h/mL
  IV Cl: IV clearance: 19 mL/min/kg
  Vz: IV apparent volume of distribution during terminal phase: 6.0 L/kg
  F: oral bioavailability: 48%
M.tb; [8]
  log reduction at 20 mg/kg: 0.9
M. tb (strain H37Rv) [5]
  MIC90: 0.45 µg/mL (≈ 0.717 µM)

## COc1cccc(C(c2cc3cc(C#N)ccc3nc2OC)C(O)(CCN(C)C)c2cc(C)nc(C)c2)c1F (stereo not drawn) [Compound 55]
M. tb (strain H37Rv) [1]
  MIC90: 0.6 µg/mL (≈ 1.14 µM)
In vitro [2]
  microsomal CLint: 51 µL/min/mg
In vitro [3]
  microsomal CLint: 12 µL/min/mg
hERG potassium channel
  hERG % inhibition at 3 µM: 37%/3
[4]
  AUC: exposure, AUCinf: 350 ng·h/mL
  IV Cl: IV clearance: 130 mL/min/kg
  Vz: IV apparent volume of distribution during terminal phase: 53 L/kg
  F: oral bioavailability: 25%
M. tb (strain H37Rv) [5]
  MIC90: 0.91 µg/mL (≈ 1.72 µM)
In vivo
  clearance: > 50 mL/min/kg

## COc1cccc(C(c2cc3cc(C#N)ccc3nc2OC)C(O)(CCN(C)C)c2cc(C)nc(C)c2)c1OC (stereo not drawn) [Compound 57]
M. tb (strain H37Rv) [1]
  MIC90: 0.24 µg/mL (≈ 0.444 µM)
In vitro [2]
  microsomal CLint: 7 µL/min/mg
In vitro [3]
  microsomal CLint: 7 µL/min/mg
hERG potassium channel
  pIC50: 5.28
[4]
  AUC: exposure, AUCinf: 1480 ng·h/mL
  IV Cl: IV clearance: 71 mL/min/kg
  Vz: IV apparent volume of distribution during terminal phase: 82 L/kg
  F: oral bioavailability: 54%
M.tb; [8]
  log reduction at 20 mg/kg: 1.9
M. tb (strain H37Rv) [5]
  MIC90: 0.61 µg/mL (≈ 1.13 µM)
In vivo
  clearance: > 50 mL/min/kg

## CCOc1cc(C(O)(CCN(C)C)C(c2cc3cc(Br)ccc3nc2OC)c2ccnc(OC)c2OC)cc(OC(C)C)n1 (stereo not drawn) [Compound 61]
M. tb (strain H37Rv) [1]
  MIC90: 0.01 µg/mL (≈ 0.0149 µM)
[6]
  microsomal CLint: 8 µL/min/mg
M.tb; Mycobacterium tuberculosis, inhaled or nasal, 288 h, read-out: Log reduction in colony-forming units (CFU), new compound
  log reduction at 20 mg/kg: 5
M. tb (strain H37Rv) [5]
  MIC90: 0.06 µg/mL (≈ 0.0896 µM)
Mouse pharmacokinetics; mice
  F: oral bioavailability: 50%
Mouse pharmacokinetics; mouse
  AUC: exposure, AUCinf: 10900 ng·h/mL
Mouse pharmacokinetics; mouse, IV
  IV Cl: IV clearance: 7 mL/min/kg
  Vz: IV apparent volume of distribution during terminal phase: 44 L/kg
[7]
  microsomal CLint: 7 µL/min/mg

## CCOc1cc(C(O)(CCN(C)C)C(c2cc(OC)nc(OC)c2)c2cc3cc(Br)ccc3nc2OC)cc(OC(C)C)n1 (stereo not drawn) [Compound 62]
M. tb (strain H37Rv) [1]
  MIC90: < 0.02 µg/mL
In vitro [2]
  microsomal CLint: 2.3 µL/min/mg
In vitro [3]
  microsomal CLint: 1 µL/min/mg
hERG potassium channel
  pIC50: < 5.00
[4]
  AUC: exposure, AUCinf: 33000 ng·h/mL
  IV Cl: IV clearance: 3 mL/min/kg
  Vz: IV apparent volume of distribution during terminal phase: 20 L/kg
  F: oral bioavailability: 58%
M.tb; [8]
  log reduction at 20 mg/kg: 4.5
